Experimental data: patent US9631050B2, “Antimicrobial cationic polycarbonates” (International Business Machines Corporation, priority 2013, dated 2017)

Tested on: mammalian red blood cells
Protocol: HC50 is defined as the concentration (in mg/L) of cationic polymer that causes 50% of mammalian red blood cells to undergo hemolysis. HC50 values of 500 mg/L or higher are desirable.
Fresh rabbit blood cells or rat blood cells were subjected to 25× dilution with phosphate buffered saline (PBS) to obtain an approximate 4% v/v suspension for use in this experiment. Red blood cell suspension (300 microliters) was added to each tube containing an equal volume (300 microliters) of polymer solution in PBS (with final polymer concentrations ranging from 3.9-500 mg/L). The tubes were then incubated at 37° C. for 1 hour before they were centrifuged at 1000×g for 5 min. Aliquots (100 microliters) of supernatant were transferred to each well of a 96-well plate and analyzed for hemoglobin release at 576 nm using a microplate reader (TECAN, Switzerland). Red blood cells suspension incubated with PBS was used as negative control. Absorbance of red blood cells lyzed with 0.1% v/v Triton X-100 was used as the positive control and taken to be 100% hemolytic. Percentage of hemolysis was calculated using the following formula: Hemolysis (%)=[(O.D.576 nm of treated sample−O.D.576 nm of negative control)/(O.D.576 nm of positive control−O.D.576 nm of negative control)]×100. Data are expressed as mean±standard deviations of 4 replicates.

HC50: 250 mg/L
Substance: Butyl imidazole [Example 36]
